According to US20020137929A1, “1 - (3-heterocyclylphenyl) isothiourea, -isourea, -guanidine and -amidine herbicidal agents” (Intellectual Property Department, BASF Aktiengesellschaft, priority 1998, published 2002):

Key:
[1] = system: ECHCG (Barnyardgrass); assay: Postemergence herbicidal evaluation; type: in vivo, Echinochloa crus-galli; conditions: for ECHCG herbicidal rating: postemergence
In short: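 Visual 0-9 injury score (stand, vigor, malformation, size, chlorosis, appearance vs untreated) taken four to five weeks post-spray, averaged across repeat tests. Test plants about two weeks old; foliar spray of acetone/water (1:1) with 0.5% surfactant delivering ~0.0156-0.500 kg active/ha.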

[2] = system: CHEAL (Lambsquarters, Common); assay: Preemergence herbicidal evaluation; type: in vivo, Chenopodium album; conditions: rated 4-5 weeks after treatment
In short: (§1)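 Sown cups got a single aqueous acetone spray of test compound (roughly 0.0156–0.500 kg/ha) before seedlings emerged. Evaluation, 4–5 weeks on, used a 0–9 visual scale covering plant stand, vigor, size, malformation, chlorosis and general appearance compared with controls.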

[3] = system: CYPSE (Flatsedge); assay: Preemergence weed control under flooded paddy conditions; type: in vivo, Cyperus serotinus; conditions: rated 3-4 weeks after treatment
In short: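 Seeds or propagules sown in silt loam kept flooded 1.5-3 cm; compounds in 50/50 acetone/water pipetted into flood water at about 0.0313 to 0.500 kg/ha. Greenhouse; visual 0-9 rating versus untreated control 3-4 weeks after treatment.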

[4] = system: MOOVA (Monochoria); assay: Postemergence weed control under flooded paddy conditions; type: in vivo, Monochoria vaginalis; conditions: postemergence weeds
In short: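 Injury ratings (0–9 scale covering stand, vigor, malformation, size, chlorosis and overall appearance versus control) were made three to four weeks after treatment. Test material, about 0.0313 to 0.500 kg/ha a.i. in 50/50 v/v aqueous/acetone, was added to flood water 1.5 to 3 cm deep over 3 to 5 cm weeds and 1.5 to 2.5 leaf rice.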

[5] = system: ORYSAT (Rice, Tebonnet); assay: Preemergence herbicidal evaluation; type: in vivo, Oryza sativa, (L.) Tebonnet; conditions: rated 4-5 weeks after treatment
In short: as §1

[6] = system: ECHORC (Watergrass (Calif.)); assay: Preemergence weed control under flooded paddy conditions; type: in vivo, Echinochloa oryzoides; conditions: rated 3-4 weeks after treatment
In short: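 Visual injury scored 0-9 against control three to four weeks post-treatment, greenhouse-grown. Application: acetone/water (50/50) solutions dosed directly into flood water (1.5-3 cm over silt loam, planted top 0.5 cm), roughly 0.0313 to 0.500 kg/ha active ingredient.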

[7] = Rate 0.0313 kg/ha, rated 3 to 4 weeks after treatment
[8] = Rate 0.0625 kg/ha, rated 3 to 4 weeks after treatment
[9] = Rate 0.1250 kg/ha, rated 3 to 4 weeks after treatment
[10] = Rate 0.2500 kg/ha, rated 3 to 4 weeks after treatment

Row | SMILES | ECHCG herbicidal rating ([1]; rate 0.0158 kg/ha) | ECHCG herbicidal rating ([1]; rate 0.0315 kg/ha) | ECHCG herbicidal rating ([1]; rate 0.0630 kg/ha) | Preemergence herbicidal rating CHEAL ([2]; rate 0.0156 kg/ha) | Preemergence herbicidal rating CHEAL ([2]; rate 0.0313 kg/ha) | Preemergence herbicidal rating CHEAL ([2]; rate 0.0625 kg/ha) | Preemergence herbicidal rating CHEAL ([2]; rate 0.1250 kg/ha) | Preemergence herbicidal rating CHEAL ([2]; rate 0.2500 kg/ha) | CYPSE herbicidal effect rating ([3]; 0.0313 kg/ha) | CYPSE herbicidal effect rating ([3]; 0.0625 kg/ha) | CYPSE herbicidal effect rating ([3]; 0.1250 kg/ha) | CYPSE herbicidal effect rating ([3]; 0.2500 kg/ha) | Herbicidal rating MOOVA [4, 7] | Herbicidal rating MOOVA [4, 8] | Herbicidal rating MOOVA [4, 9] | Herbicidal rating MOOVA [4, 10] | Preemergence herbicidal rating ORYSAT ([5]; rate 0.0156 kg/ha) | Preemergence herbicidal rating ORYSAT ([5]; rate 0.0625 kg/ha) | Preemergence herbicidal rating ORYSAT ([5]; rate 0.1250 kg/ha) | Preemergence herbicidal rating ORYSAT ([5]; rate 0.2500 kg/ha) | other results
1 | C#CCOC(=O)CC1SC(=Nc2cc(-n3c(=O)cc(C(F)(F)F)n(C)c3=O)c(F)cc2Cl)N(CC=C)C1=O (stereo not shown) [Compound 67, 2-Propynyl 3-allyl-2-{{2-chloro-5-[3,6-dihydro-3-methyl-2,6-dioxo-4-(trifluoromethyl)-1(2H)-pyrimidinyl]-4-fluorophenyl}imino}-4-oxo-5-thiazolidineacetate] | 3.0 | 6.0 | 7.0 | 2.0 | 9.0 | 9.0 | 9.0 | 9.0 | 0.0 | 3.0 | 3.0 | 3.0 | 9.0 | 9.0 | 9.0 | 9.0 | 0.0 | 0.0 | 1.0 | 1.0 | Preemergence herbicidal rating ORYSAT ([5]; rate 0.0313 kg/ha): 0.0; ECHORC herbicidal effect rating ([6]; 0.0313 kg/ha): 0.0; ECHORC herbicidal effect rating ([6]; 0.0625 kg/ha): 4.0; ECHORC herbicidal effect rating ([6]; 0.1250 kg/ha): 5.0; ECHORC herbicidal effect rating ([6]; 0.2500 kg/ha): 5.0
2 | COC(=O)CCCN1C(=O)CSC1=Nc1cc(-n2c(=O)cc(C(F)(F)F)n(C)c2=O)c(F)cc1Cl [Compound 29, Methyl 2-{{2-chloro-5-[3,6-dihydro-3-methyl-2,6-dioxo-4-(trifluoromethyl)-1(2H)-pyrimidinyl]-4-fluorophenyl}imino}-4-oxo-3-thiazolidinebutyrate] | – | – | – | – | – | 0.0 | 0.0 | 0.0 | – | – | – | – | – | – | – | – | – | 0.0 | 0.0 | 3.0 | Postemergence herbicidal rating ECHCG ([1]; Rate 0.0158 kg/ha): 0.0; Postemergence herbicidal rating ECHCG ([1]; Rate 0.0315 kg/ha): 1.0; Postemergence herbicidal rating ECHCG ([1]; Rate 0.0630 kg/ha): 4.0; Herbicidal rating CYPSE ([3]; 0.0313 kg/ha): 0.0; Herbicidal rating CYPSE ([3]; 0.0625 kg/ha): 0.0; Herbicidal rating CYPSE ([3]; 0.1250 kg/ha): 0.0; Herbicidal rating CYPSE ([3]; 0.2500 kg/ha): 0.0; Herbicidal rating MOOVA ([4]; rate 0.0313 kg/ha, 3-4 weeks after treatment): 0.0; Herbicidal rating MOOVA ([4]; rate 0.0625 kg/ha, 3-4 weeks after treatment): 0.0; Herbicidal rating MOOVA ([4]; rate 0.1250 kg/ha, 3-4 weeks after treatment): 0.0; Herbicidal rating MOOVA ([4]; rate 0.2500 kg/ha, 3-4 weeks after treatment): 0.0; Herbicidal rating ECHORC ([6]; 0.0313 kg/ha): 4.0; Herbicidal rating ECHORC ([6]; 0.0625 kg/ha): 7.0; Herbicidal rating ECHORC ([6]; 0.1250 kg/ha): 7.0; Herbicidal rating ECHORC ([6]; 0.2500 kg/ha): 7.0
3 | C=CCOC(=O)CC1SC(=Nc2cc(-n3c(=O)cc(C(F)(F)F)n(C)c3=O)c(F)cc2Cl)N(CC=C)C1=O (stereo not shown) [Compound 65, Allyl 3-allyl-2-{(2-chloro-5-[3,6-dihydro-3-methyl-2,6-dioxo-4-(trifluoromethyl)-1(2H)-pyrimidinyl]-4-fluorophenyl}imino}-4-oxo-5-thiazolidineacetate] | 3.0 | 7.0 | 7.0 | 9.0 | 9.0 | 9.0 | 9.0 | 9.0 | 0.0 | 0.0 | 0.0 | 0.0 | 9.0 | 9.0 | 9.0 | 9.0 | 0.0 | 1.0 | 1.0 | 6.0 | Preemergence herbicidal rating ORYSAT ([5]; rate 0.0313 kg/ha): 0.0; ECHORC herbicidal effect rating ([6]; 0.0313 kg/ha): 5.0; ECHORC herbicidal effect rating ([6]; 0.0625 kg/ha): 5.0; ECHORC herbicidal effect rating ([6]; 0.1250 kg/ha): 6.0; ECHORC herbicidal effect rating ([6]; 0.2500 kg/ha): 7.0
4 | CCOC(=O)CN1C(=O)C(CC(=O)Nc2ccccc2)SC1=Nc1cc(-n2c(=O)cc(C(F)(F)F)n(C)c2=O)c(F)cc1Cl (stereo not shown) [Compound 68, Ethyl 2-{{2-chloro-5-[3,6-dihydro-3-methyl-2,6-dioxo-4-(trifluoromethyl)-1(2H)-pyrimidinyl]-4-fluorophenyl}imino}-4-oxo-5-[(phenylcarbamoyl)-methyl]-3-thiazolidineacetate] | 2.0 | 2.0 | 5.0 | 2.0 | 9.0 | 9.0 | 9.0 | 9.0 | 0.0 | 0.0 | 0.0 | 0.0 | 3.0 | 9.0 | 9.0 | 9.0 | 0.0 | 0.0 | 0.0 | 1.0 | Preemergence herbicidal rating ORYSAT ([5]; rate 0.0313 kg/ha): 0.0; ECHORC herbicidal effect rating ([6]; 0.0313 kg/ha): 0.0; ECHORC herbicidal effect rating ([6]; 0.0625 kg/ha): 5.0; ECHORC herbicidal effect rating ([6]; 0.1250 kg/ha): 7.0; ECHORC herbicidal effect rating ([6]; 0.2500 kg/ha): 7.0
5 | CN(C)N1C(=O)CSC1=Nc1cc(-n2c(=O)cc(C(F)(F)F)n(C)c2=O)c(F)cc1Cl [Compound 23, 3-{4-Chloro-5-{[3-(dimethylamino)-4-oxo-2-thiazolidinylidine]amino}-2-fluorophenyl}-1-methyl-6-(trifluoromethyl)-2,4(1H,3H)-pyrimidinedione] | 0.0 | 2.0 | 2.0 | – | – | – | – | – | – | – | – | – | – | – | – | – | – | – | – | – | CHEAL preemergence herbicidal rating ([2]; rate 0.0156 kg/ha): 0.0; CHEAL preemergence herbicidal rating ([2]; rate 0.0313 kg/ha): 1.0; CHEAL preemergence herbicidal rating ([2]; rate 0.0625 kg/ha): 7.0; CHEAL preemergence herbicidal rating ([2]; rate 0.1250 kg/ha): 9.0; CHEAL preemergence herbicidal rating ([2]; rate 0.2500 kg/ha): 9.0; Herbicidal rating CYPSE ([3]; 0.1160 kg/ha): 0.0; Herbicidal rating CYPSE ([3]; 0.2310 kg/ha): 0.0; Herbicidal rating CYPSE ([3]; 0.4630 kg/ha): 0.0; Herbicidal rating MOOVA ([4]; rate 0.1160 kg/ha, 3-4 weeks after treatment): 9.0; Herbicidal rating MOOVA ([4]; rate 0.2310 kg/ha, 3-4 weeks after treatment): 9.0; Herbicidal rating MOOVA ([4]; rate 0.4630 kg/ha, 3-4 weeks after treatment): 9.0; ORYSAT preemergence herbicidal rating ([5]; rate 0.0156 kg/ha): 0.0; ORYSAT preemergence herbicidal rating ([5]; rate 0.0313 kg/ha): 0.0; ORYSAT preemergence herbicidal rating ([5]; rate 0.0625 kg/ha): 1.0; ORYSAT preemergence herbicidal rating ([5]; rate 0.1250 kg/ha): 1.0; ORYSAT preemergence herbicidal rating ([5]; rate 0.2500 kg/ha): 7.0; Herbicidal rating ECHORC ([6]; 0.1160 kg/ha): 4.0; Herbicidal rating ECHORC ([6]; 0.2310 kg/ha): 4.0; Herbicidal rating ECHORC ([6]; 0.4630 kg/ha): 4.0
